Test results: US20120178180A1, “METHODS FOR THE IDENTIFICATION OF ZAP-70 INTERACTING MOLECULES AND FOR THE PURIFICATION OF ZAP-70” (priority 2006, published 2012)

Target: T1, phosphorylated ZAP-70 (Homo sapiens, UniProt P43403)
T1 construct: endogenous in cells; host or cells: Jurkat cells (clone E6-1, ATCC TIB-152), pervanadate treated
T1 sequence (P43403 1-619): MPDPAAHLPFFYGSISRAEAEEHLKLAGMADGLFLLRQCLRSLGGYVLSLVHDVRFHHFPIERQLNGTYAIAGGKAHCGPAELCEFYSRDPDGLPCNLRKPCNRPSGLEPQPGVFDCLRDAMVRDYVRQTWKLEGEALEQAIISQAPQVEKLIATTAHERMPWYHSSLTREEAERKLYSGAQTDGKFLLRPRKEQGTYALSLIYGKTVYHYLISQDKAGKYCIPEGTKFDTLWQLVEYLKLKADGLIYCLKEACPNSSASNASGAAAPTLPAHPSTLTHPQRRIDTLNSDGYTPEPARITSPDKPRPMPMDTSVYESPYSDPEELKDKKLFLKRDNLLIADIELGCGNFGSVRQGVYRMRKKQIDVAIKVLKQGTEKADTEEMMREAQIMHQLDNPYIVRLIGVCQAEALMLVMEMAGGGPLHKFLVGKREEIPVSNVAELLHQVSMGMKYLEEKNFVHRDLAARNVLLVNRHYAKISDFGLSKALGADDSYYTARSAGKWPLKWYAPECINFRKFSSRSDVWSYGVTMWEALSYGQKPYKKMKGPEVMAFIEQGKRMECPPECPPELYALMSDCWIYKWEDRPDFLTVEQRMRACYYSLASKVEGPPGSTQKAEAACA
Assay: Drug pulldown with immobilized aminopyrido-pyrimidin ligand 24 and Western blot analysis
Assay type: binding
Conditions: lysates of non-treated versus pervanadate treated Jurkat cells; Western blot, FIG. 2
Method: As biological material cell lysates prepared from non-treated or pervanadate treated Jurkat cells were used. The drug pulldown experiment was performed as described in Example 2 with lysate samples containing 50 mg of protein. Input lysate, flowthrough (non-bound fraction) and SDS-eluates (bound fraction) were separated on a SDS-polyacrylamide gel and transferred to a membrane. The blot was probed first with a general anti-ZAP-70 antibody (2A) and then with an antiphospho-ZAP-70 antibody (2B). Secondary detection antibodies were labeled with fluorescent dyes for detection with the Odyssey infrared imaging system. […]
For Western blot analysis bound proteins were eluted from the affinity matrix and subsequently separated by SDS-Polyacrylamide gel electrophoresis. ZAP-70 was detected with a general monoclonal antibody binding to the non-phosphorylated aminoterminal part of the protein and in addition with a phospho-specific antibody (FIG. 2). […]
Jurkat cells were homogenized in a Potter S homogenizer in lysis buffer: 50 mM Tris-HCl, 0.8% NP40, 5% glycerol, 150 mM NaCl, 1.5 mM MgCl2, 25 mM NaF, 1 mM sodium vanadate, 1 mM DTT, pH 7.5. […] The supernatant was transferred again to a fresh 50 ml falcon tube, the protein concentration was determined by a Bradford assay (BioRad) and samples containing 50 mg of protein per aliquot were prepared. […]

Structure (SMILES): Cn1c(=O)c(-c2c(Cl)cccc2Cl)cc2cnc(Nc3ccc(CN)cc3)cc21 [aminopyrido-pyrimidin ligand 24, 7-(4-Aminomethyl-phenylamino)-3-(2,6-dichloro-phenyl)-1-methyl-1H-[1,6]naphthyridin-2-one]
- pulldown of ZAP-70 by the immobilized ligand: preferentially pulls down a phosphorylated form of ZAP-70
